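A five-concentration, 48-hour dose response in 96-well plates underlies each endpoint, interpolated linearly between surrounding concentrations. At the TGI there is no net growth.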
Experiments:
Experiment in all cases: NCI-60 cell line screen, 48 h
HOP-92 NSCLC = system: HOP-92 NSCLC
SK-MEL-28 melanoma = system: SK-MEL-28 melanoma
SK-OV-3 ovarian = system: SK-OV-3 ovarian
K-562 leukemia = system: K-562 leukemia
LOX IMVI melanoma = system: LOX IMVI melanoma
A549 NSCLC = system: A549 NSCLC
T-47D breast = system: T-47D breast
NCI-H460 lung = system: NCI-H460 lung
CAKI-1 renal = system: CAKI-1 renal
786-0 renal = system: 786-0 renal
HCT-116 colon = system: HCT-116 colon
SW-620 colon = system: SW-620 colon
M14 melanoma = system: M14 melanoma
SN12C renal = system: SN12C renal
UO-31 renal = system: UO-31 renal
SK-MEL-5 melanoma = system: SK-MEL-5 melanoma
SK-MEL-2 melanoma = system: SK-MEL-2 melanoma
MCF7 breast = system: MCF7 breast
SR leukemia = system: SR leukemia
DU-145 prostate = system: DU-145 prostate
OVCAR-3 ovarian = system: OVCAR-3 ovarian
A498 renal = system: A498 renal
MOLT-4 leukemia = system: MOLT-4 leukemia
OVCAR-5 ovarian = system: OVCAR-5 ovarian
MDA-MB-231 breast = system: MDA-MB-231 breast
ACHN renal = system: ACHN renal
MDA-MB-435 = system: MDA-MB-435
CCRF-CEM leukemia = system: CCRF-CEM leukemia
SF-268 CNS = system: SF-268 CNS
OVCAR-8 ovarian = system: OVCAR-8 ovarian
HT29 colon = system: HT29 colon
EKVX NSCLC = system: EKVX NSCLC
SF-539 CNS = system: SF-539 CNS
RXF 393 renal = system: RXF 393 renal
UACC-257 melanoma = system: UACC-257 melanoma
SF-295 CNS = system: SF-295 CNS
OVCAR-4 ovarian = system: OVCAR-4 ovarian
TK-10 renal = system: TK-10 renal
SNB-75 CNS = system: SNB-75 CNS
NCI-H226 lung = system: NCI-H226 lung
NCI/ADR-RES ovarian = system: NCI/ADR-RES ovarian
COLO 205 colon = system: COLO 205 colon
NCI-H522 lung = system: NCI-H522 lung
NCI-H23 lung = system: NCI-H23 lung
MALME-3M melanoma = system: MALME-3M melanoma
SNB-19 CNS = system: SNB-19 CNS
HCC-2998 colon = system: HCC-2998 colon
RPMI-8226 leukemia = system: RPMI-8226 leukemia
IGROV1 ovarian = system: IGROV1 ovarian
HOP-62 NSCLC = system: HOP-62 NSCLC
HCT-15 colon = system: HCT-15 colon
MDA-N = system: MDA-N
HS 578T breast = system: HS 578T breast
UACC-62 melanoma = system: UACC-62 melanoma
PC-3 prostate = system: PC-3 prostate
KM12 colon = system: KM12 colon
HL-60(TB) leukemia = system: HL-60(TB) leukemia
U251 CNS = system: U251 CNS
BT-549 breast = system: BT-549 breast

CCOC1OCCCC1Br (centres undefined)
TGI (HOP-92 NSCLC): > 100 µM
TGI (SK-MEL-28 melanoma): > 100 µM
TGI (SK-OV-3 ovarian): > 100 µM
TGI (K-562 leukemia): > 100 µM
TGI (LOX IMVI melanoma): > 100 µM
TGI (A549 NSCLC): > 100 µM
TGI (T-47D breast): > 100 µM
TGI (NCI-H460 lung): > 100 µM
TGI (CAKI-1 renal): > 100 µM
TGI (786-0 renal): > 100 µM
TGI (HCT-116 colon): > 100 µM
TGI (SW-620 colon): > 100 µM
TGI (M14 melanoma): > 100 µM
TGI (SN12C renal): > 100 µM
TGI (UO-31 renal): > 100 µM
TGI (SK-MEL-5 melanoma): > 100 µM
TGI (SK-MEL-2 melanoma): > 100 µM
TGI (MCF7 breast): > 100 µM
TGI (SR leukemia): > 100 µM
TGI (DU-145 prostate): > 100 µM
TGI (OVCAR-3 ovarian): > 100 µM
TGI (A498 renal): > 100 µM
TGI (MOLT-4 leukemia): > 100 µM
TGI (OVCAR-5 ovarian): > 100 µM
TGI (MDA-MB-231 breast): > 100 µM
TGI (ACHN renal): > 100 µM
TGI (MDA-MB-435): > 100 µM
TGI (CCRF-CEM leukemia): > 100 µM
TGI (SF-268 CNS): > 100 µM
TGI (OVCAR-8 ovarian): > 100 µM
TGI (HT29 colon): > 100 µM
TGI (EKVX NSCLC): > 100 µM
TGI (SF-539 CNS): > 100 µM
TGI (RXF 393 renal): > 100 µM
TGI (UACC-257 melanoma): > 100 µM
TGI (SF-295 CNS): > 100 µM
TGI (OVCAR-4 ovarian): > 100 µM
TGI (TK-10 renal): > 100 µM
TGI (SNB-75 CNS): > 100 µM
TGI (NCI-H226 lung): > 100 µM
TGI (NCI/ADR-RES ovarian): > 100 µM
TGI (COLO 205 colon): > 100 µM
TGI (NCI-H522 lung): > 100 µM
TGI (NCI-H23 lung): > 100 µM
TGI (MALME-3M melanoma): > 100 µM
TGI (SNB-19 CNS): > 100 µM
TGI (HCC-2998 colon): > 100 µM
TGI (RPMI-8226 leukemia): > 100 µM
TGI (IGROV1 ovarian): > 100 µM
TGI (HOP-62 NSCLC): > 100 µM
TGI (HCT-15 colon): > 100 µM
TGI (MDA-N): > 100 µM
TGI (HS 578T breast): > 100 µM
TGI (UACC-62 melanoma): > 100 µM
TGI (PC-3 prostate): > 100 µM
TGI (KM12 colon): > 100 µM

COc1ccc(C2OC(=O)c3c2ccc2ccccc32)c(C)c1 (centres undefined)
TGI (HOP-92 NSCLC): 80.1 µM
TGI (SK-MEL-28 melanoma): > 100 µM
TGI (K-562 leukemia): > 100 µM
TGI (A549 NSCLC): 73.4 µM
TGI (NCI-H460 lung): > 100 µM
TGI (786-0 renal): 18.1 µM
TGI (HCT-116 colon): > 100 µM
TGI (SW-620 colon): > 100 µM
TGI (M14 melanoma): > 100 µM
TGI (SN12C renal): 88.2 µM
TGI (UO-31 renal): > 100 µM
TGI (SK-MEL-5 melanoma): 6.82 µM
TGI (SK-MEL-2 melanoma): 7.52 µM
TGI (MCF7 breast): 10.1 µM
TGI (SR leukemia): > 100 µM
TGI (A498 renal): 21.2 µM
TGI (MOLT-4 leukemia): 37 µM
TGI (OVCAR-5 ovarian): > 100 µM
TGI (HL-60(TB) leukemia): 5.38 µM
TGI (MDA-MB-231 breast): > 100 µM
TGI (ACHN renal): > 100 µM
TGI (OVCAR-8 ovarian): > 100 µM
TGI (HT29 colon): > 100 µM
TGI (EKVX NSCLC): > 100 µM
TGI (RXF 393 renal): > 100 µM
TGI (UACC-257 melanoma): 80.5 µM
TGI (TK-10 renal): 17.7 µM
TGI (SNB-75 CNS): 30.6 µM
TGI (NCI-H226 lung): 67.6 µM
TGI (COLO 205 colon): 21.9 µM
TGI (U251 CNS): 20.2 µM
TGI (NCI-H23 lung): > 100 µM
TGI (MALME-3M melanoma): 17.3 µM
TGI (SNB-19 CNS): > 100 µM
TGI (HCC-2998 colon): 3.34 µM
TGI (RPMI-8226 leukemia): 60.9 µM
TGI (IGROV1 ovarian): > 100 µM
TGI (HOP-62 NSCLC): 50 µM
TGI (HCT-15 colon): 19.9 µM
TGI (MDA-N): 4.34 µM
TGI (HS 578T breast): > 100 µM
TGI (UACC-62 melanoma): 90.5 µM
TGI (PC-3 prostate): 97.1 µM
TGI (KM12 colon): > 100 µM
TGI (BT-549 breast): 69.4 µM

CC(=O)/C=C/C=C(\C)CC/C=C(\C)CC(C)C
TGI (HOP-92 NSCLC): 27.4 µM
TGI (SK-MEL-28 melanoma): > 100 µM
TGI (SK-OV-3 ovarian): > 100 µM
TGI (K-562 leukemia): 56.8 µM
TGI (LOX IMVI melanoma): 34 µM
TGI (A549 NSCLC): > 100 µM
TGI (T-47D breast): 46 µM
TGI (NCI-H460 lung): > 100 µM
TGI (CAKI-1 renal): > 100 µM
TGI (786-0 renal): 97.3 µM
TGI (HCT-116 colon): 62.8 µM
TGI (SW-620 colon): 35.3 µM
TGI (M14 melanoma): > 100 µM
TGI (SN12C renal): 96.2 µM
TGI (UO-31 renal): > 100 µM
TGI (SK-MEL-5 melanoma): 35.5 µM
TGI (SK-MEL-2 melanoma): 42.3 µM
TGI (MCF7 breast): 57.9 µM
TGI (SR leukemia): 39.1 µM
TGI (DU-145 prostate): > 100 µM
TGI (OVCAR-3 ovarian): 78.7 µM
TGI (A498 renal): 83.3 µM
TGI (MOLT-4 leukemia): 41.9 µM
TGI (OVCAR-5 ovarian): > 100 µM
TGI (HL-60(TB) leukemia): 33.4 µM
TGI (MDA-MB-231 breast): > 100 µM
TGI (ACHN renal): > 100 µM
TGI (MDA-MB-435): 77.1 µM
TGI (CCRF-CEM leukemia): 37 µM
TGI (SF-268 CNS): > 100 µM
TGI (OVCAR-8 ovarian): 65.8 µM
TGI (HT29 colon): > 100 µM
TGI (EKVX NSCLC): > 100 µM
TGI (SF-539 CNS): 46.8 µM
TGI (RXF 393 renal): 30.3 µM
TGI (UACC-257 melanoma): 60 µM
TGI (SF-295 CNS): > 100 µM
TGI (OVCAR-4 ovarian): > 100 µM
TGI (TK-10 renal): > 100 µM
TGI (SNB-75 CNS): 98.8 µM
TGI (NCI-H226 lung): 68.6 µM
TGI (COLO 205 colon): 39 µM
TGI (U251 CNS): 87.7 µM
TGI (NCI-H522 lung): 42.6 µM
TGI (NCI-H23 lung): 54.9 µM
TGI (SNB-19 CNS): > 100 µM
TGI (HCC-2998 colon): 34.7 µM
TGI (RPMI-8226 leukemia): 38.4 µM
TGI (IGROV1 ovarian): > 100 µM
TGI (HOP-62 NSCLC): > 100 µM
TGI (HCT-15 colon): 30.6 µM
TGI (MDA-N): > 100 µM
TGI (HS 578T breast): > 100 µM
TGI (UACC-62 melanoma): 49.2 µM
TGI (PC-3 prostate): > 100 µM
TGI (KM12 colon): 95.3 µM

COC(=O)c1c[nH]c(=O)[nH]c1=O
TGI (HOP-92 NSCLC): > 100 µM
TGI (SK-MEL-28 melanoma): > 100 µM
TGI (K-562 leukemia): > 100 µM
TGI (LOX IMVI melanoma): > 100 µM
TGI (A549 NSCLC): > 100 µM
TGI (T-47D breast): > 100 µM
TGI (NCI-H460 lung): > 100 µM
TGI (CAKI-1 renal): > 100 µM
TGI (786-0 renal): > 100 µM
TGI (HCT-116 colon): > 100 µM
TGI (SW-620 colon): > 100 µM
TGI (M14 melanoma): > 100 µM
TGI (SN12C renal): > 100 µM
TGI (UO-31 renal): > 100 µM
TGI (SK-MEL-5 melanoma): > 100 µM
TGI (SK-MEL-2 melanoma): > 100 µM
TGI (MCF7 breast): > 100 µM
TGI (SR leukemia): > 100 µM
TGI (DU-145 prostate): > 100 µM
TGI (OVCAR-3 ovarian): > 100 µM
TGI (MOLT-4 leukemia): > 100 µM
TGI (OVCAR-5 ovarian): > 100 µM
TGI (ACHN renal): > 100 µM
TGI (MDA-MB-435): > 100 µM
TGI (CCRF-CEM leukemia): > 100 µM
TGI (SF-268 CNS): > 100 µM
TGI (OVCAR-8 ovarian): > 100 µM
TGI (EKVX NSCLC): > 100 µM
TGI (SF-539 CNS): > 100 µM
TGI (UACC-257 melanoma): > 100 µM
TGI (SF-295 CNS): > 100 µM
TGI (TK-10 renal): > 100 µM
TGI (SNB-75 CNS): > 100 µM
TGI (NCI/ADR-RES ovarian): > 100 µM
TGI (COLO 205 colon): > 100 µM
TGI (NCI-H522 lung): > 100 µM
TGI (NCI-H23 lung): > 100 µM
TGI (SNB-19 CNS): > 100 µM
TGI (HCC-2998 colon): > 100 µM
TGI (RPMI-8226 leukemia): > 100 µM
TGI (IGROV1 ovarian): > 100 µM
TGI (HCT-15 colon): > 100 µM
TGI (MDA-N): > 100 µM
TGI (HS 578T breast): > 100 µM
TGI (UACC-62 melanoma): > 100 µM
TGI (PC-3 prostate): > 100 µM
TGI (KM12 colon): > 100 µM

From PubChem BioAssay (NCI)
